Measurements as given in the supplement of paper PMC10307832.

Assays:
Assay in all cases: relative viability (nuclei count vs DMSO), 5 days (fraction); higher = more cells survive
[1] = test system: NCI-H1563
Outline: (§1)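 Lung cancer cell lines in 1536-well plates got either a single drug or a fixed anchor-drug dose together with five library-drug doses (not always all listed) in √10 steps, by pin tool, on the day after seeding. Nuclei were counted after 5 days, and relative viability is the treated-to-vehicle ratio of nuclei counts. Values are medians of duplicate plates.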

[2] = test system: PC-3 [JPC-3]
Outline: as §1

[3] = test system: EMC-BAC-2
Outline: as §1

[4] = test system: NCI-H520
Outline: as §1

[5] = test system: NCI-H596
Outline: as §1

[6] = test system: NCI-H1666
Outline: as §1

[7] = test system: NCI-H1755
Outline: as §1

[8] = test system: LOU-NH91
Outline: as §1

[9] = test system: NCI-H1975
Outline: as §1

[10] = test system: H3255
Outline: as §1

[11] = test system: ChaGo-K-1
Outline: as §1

[12] = test system: A-427
Outline: as §1

[13] = test system: COR-L 105
Outline: as §1

[14] = test system: NCI-H23
Outline: as §1

[15] = test system: EKVX
Outline: as §1

[16] = test system: HCC-366
Outline: as §1

[17] = test system: NCI-H441
Outline: as §1

[18] = test system: NCI-H1734
Outline: as §1

[19] = test system: SK-MES-1
Outline: as §1

[20] = test system: LK-2
Outline: as §1

[21] = test system: NCI-H2170
Outline: as §1

COc1nc(C)cnc1NS(=O)(=O)c1cccnc1-c1ccc(-c2nnco2)cc1 [Zibotentan] + CC(C)C[C@H](NC(=O)[C@H](Cc1ccccc1)NC(=O)c1cnccn1)B(O)O [Bortezomib] (partner 0.002 µM)
relative viability ([1]; first compound 0.08 µM): 0.932
relative viability ([1]; first compound 0.253 µM): 0.648
relative viability ([1]; first compound 0.8 µM): 0.881
relative viability ([1]; first compound 2.53 µM): 0.905
relative viability ([2]; first compound 0.08 µM): 0.906
relative viability ([2]; first compound 0.253 µM): 0.838
relative viability ([2]; first compound 0.8 µM): 0.839
relative viability ([2]; first compound 2.53 µM): 0.807
relative viability ([3]; first compound 0.08 µM): 1.18
relative viability ([3]; first compound 0.253 µM): 1.04
relative viability ([3]; first compound 0.8 µM): 1.07
relative viability ([3]; first compound 2.53 µM): 1.09
relative viability ([4]; first compound 0.08 µM): 0.541
relative viability ([4]; first compound 0.253 µM): 0.532
relative viability ([4]; first compound 0.8 µM): 0.575
relative viability ([4]; first compound 2.53 µM): 0.821
relative viability ([5]; first compound 0.08 µM): 0.966
relative viability ([5]; first compound 0.253 µM): 0.935
relative viability ([5]; first compound 0.8 µM): 1.06
relative viability ([5]; first compound 2.53 µM): 1.31
relative viability ([6]; first compound 0.08 µM): 0.76
relative viability ([6]; first compound 0.253 µM): 0.599
relative viability ([6]; first compound 0.8 µM): 0.8
relative viability ([6]; first compound 2.53 µM): 1
relative viability ([7]; first compound 0.08 µM): 0.945
relative viability ([7]; first compound 0.253 µM): 0.952
relative viability ([7]; first compound 0.8 µM): 0.968
relative viability ([7]; first compound 2.53 µM): 0.97
relative viability ([8]; first compound 0.08 µM): 0.469
relative viability ([8]; first compound 0.253 µM): 0.443
relative viability ([8]; first compound 0.8 µM): 0.538
relative viability ([8]; first compound 2.53 µM): 0.815
relative viability ([9]; first compound 0.08 µM): 0.378
relative viability ([9]; first compound 0.253 µM): 0.293
relative viability ([9]; first compound 0.8 µM): 0.411
relative viability ([9]; first compound 2.53 µM): 0.419
relative viability ([10]; first compound 0.08 µM): 0.791
relative viability ([10]; first compound 0.253 µM): 0.963
relative viability ([10]; first compound 0.8 µM): 0.996
relative viability ([10]; first compound 2.53 µM): 0.822
relative viability ([11]; first compound 0.08 µM): 0.956
relative viability ([11]; first compound 0.8 µM): 0.977
relative viability ([11]; first compound 2.53 µM): 0.99
relative viability ([12]; first compound 0.08 µM): 1.05
relative viability ([12]; first compound 0.253 µM): 1.06
relative viability ([12]; first compound 0.8 µM): 1.02
relative viability ([12]; first compound 2.53 µM): 1.01
relative viability ([13]; first compound 0.08 µM): 0.819
relative viability ([13]; first compound 0.253 µM): 0.694
relative viability ([13]; first compound 0.8 µM): 0.859
relative viability ([13]; first compound 2.53 µM): 0.994
relative viability ([14]; first compound 0.08 µM): 1.25
relative viability ([14]; first compound 0.253 µM): 1.1
relative viability ([14]; first compound 0.8 µM): 0.999
relative viability ([14]; first compound 2.53 µM): 1.29
relative viability ([15]; first compound 0.08 µM): 1.13
relative viability ([15]; first compound 0.253 µM): 1.17
relative viability ([15]; first compound 0.8 µM): 1.11
relative viability ([15]; first compound 2.53 µM): 1.07
relative viability ([16]; first compound 0.08 µM): 1.14
relative viability ([16]; first compound 0.253 µM): 1.03
relative viability ([16]; first compound 0.8 µM): 0.795
relative viability ([16]; first compound 2.53 µM): 1.11
relative viability ([17]; first compound 0.08 µM): 0.846
relative viability ([17]; first compound 0.8 µM): 0.463
relative viability ([17]; first compound 2.53 µM): 0.539
relative viability ([18]; first compound 0.08 µM): 1.1
relative viability ([18]; first compound 0.253 µM): 0.894
relative viability ([18]; first compound 0.8 µM): 0.972
relative viability ([18]; first compound 2.53 µM): 1

O=c1cc(N2CCOCC2)oc2c(-c3cccc4c3sc3ccccc34)cccc12 + Cc1nc(NC(=O)N2CCC[C@H]2C(N)=O)sc1-c1ccnc(C(C)(C)C(F)(F)F)c1 [Alpelisib] (partner 2 µM)
relative viability ([19]; first compound 0.01 µM): 0.842
relative viability ([19]; first compound 0.03162 µM): 0.839
relative viability ([19]; first compound 0.1 µM): 0.867
relative viability ([19]; first compound 0.3162 µM): 0.935
relative viability ([19]; first compound 1 µM): 0.937
relative viability ([20]; first compound 0.01 µM): 1.1
relative viability ([20]; first compound 0.03162 µM): 1.01
relative viability ([20]; first compound 0.1 µM): 1.14
relative viability ([20]; first compound 0.3162 µM): 1.03
relative viability ([20]; first compound 1 µM): 1.25
relative viability ([1]; first compound 0.01 µM): 0.917
relative viability ([1]; first compound 0.03162 µM): 0.858
relative viability ([1]; first compound 0.1 µM): 0.93
relative viability ([1]; first compound 0.3162 µM): 0.833
relative viability ([1]; first compound 1 µM): 0.844
relative viability ([2]; first compound 0.01 µM): 1.01
relative viability ([2]; first compound 0.03162 µM): 1.05
relative viability ([2]; first compound 0.1 µM): 1.02
relative viability ([2]; first compound 0.3162 µM): 1.02
relative viability ([2]; first compound 1 µM): 1.04
relative viability ([3]; first compound 0.01 µM): 0.726
relative viability ([3]; first compound 0.03162 µM): 0.781
relative viability ([3]; first compound 0.1 µM): 0.813
relative viability ([3]; first compound 0.3162 µM): 0.759
relative viability ([3]; first compound 1 µM): 0.722
relative viability ([4]; first compound 0.01 µM): 0.997
relative viability ([4]; first compound 0.03162 µM): 1.09
relative viability ([4]; first compound 0.1 µM): 0.915
relative viability ([4]; first compound 0.3162 µM): 0.841
relative viability ([4]; first compound 1 µM): 0.996
relative viability ([5]; first compound 0.01 µM): 0.469
relative viability ([5]; first compound 0.03162 µM): 0.506
relative viability ([5]; first compound 0.1 µM): 0.451
relative viability ([5]; first compound 0.3162 µM): 0.474
relative viability ([5]; first compound 1 µM): 0.522
relative viability ([6]; first compound 0.01 µM): 0.936
relative viability ([6]; first compound 0.03162 µM): 0.864
relative viability ([6]; first compound 0.1 µM): 0.977
relative viability ([6]; first compound 0.3162 µM): 0.963
relative viability ([6]; first compound 1 µM): 0.832
relative viability ([7]; first compound 0.01 µM): 0.952
relative viability ([7]; first compound 0.03162 µM): 0.901
relative viability ([7]; first compound 0.1 µM): 0.984
relative viability ([7]; first compound 0.3162 µM): 0.866
relative viability ([7]; first compound 1 µM): 0.894
relative viability ([8]; first compound 0.01 µM): 0.656
relative viability ([8]; first compound 0.03162 µM): 0.698
relative viability ([8]; first compound 0.1 µM): 0.726
relative viability ([8]; first compound 0.3162 µM): 0.759
relative viability ([8]; first compound 1 µM): 0.69
relative viability ([9]; first compound 0.01 µM): 0.619
relative viability ([9]; first compound 0.03162 µM): 0.623
relative viability ([9]; first compound 0.1 µM): 0.649
relative viability ([9]; first compound 0.3162 µM): 0.621
relative viability ([9]; first compound 1 µM): 0.608
relative viability ([10]; first compound 0.01 µM): 0.681
relative viability ([10]; first compound 0.03162 µM): 0.698
relative viability ([10]; first compound 0.1 µM): 0.784
relative viability ([10]; first compound 0.3162 µM): 0.685
relative viability ([10]; first compound 1 µM): 0.768
relative viability ([12]; first compound 0.01 µM): 1.11
relative viability ([12]; first compound 0.03162 µM): 1.12
relative viability ([12]; first compound 0.1 µM): 1.03
relative viability ([12]; first compound 0.3162 µM): 1.04
relative viability ([12]; first compound 1 µM): 1.09
relative viability ([13]; first compound 0.01 µM): 1.1
relative viability ([13]; first compound 0.03162 µM): 0.933
relative viability ([13]; first compound 0.1 µM): 0.834
relative viability ([13]; first compound 0.3162 µM): 1.06
relative viability ([13]; first compound 1 µM): 0.838
relative viability ([14]; first compound 0.01 µM): 0.71
relative viability ([14]; first compound 0.03162 µM): 0.662
relative viability ([14]; first compound 0.3162 µM): 0.665
relative viability ([14]; first compound 1 µM): 0.745
relative viability ([15]; first compound 0.01 µM): 0.88
relative viability ([15]; first compound 0.03162 µM): 0.868
relative viability ([15]; first compound 0.1 µM): 0.883
relative viability ([15]; first compound 0.3162 µM): 0.858
relative viability ([15]; first compound 1 µM): 0.824
relative viability ([16]; first compound 0.01 µM): 0.386
relative viability ([16]; first compound 0.03162 µM): 0.469
relative viability ([16]; first compound 0.1 µM): 0.44
relative viability ([16]; first compound 0.3162 µM): 0.372
relative viability ([16]; first compound 1 µM): 0.367
relative viability ([17]; first compound 0.01 µM): 0.832
relative viability ([17]; first compound 0.03162 µM): 0.658
relative viability ([17]; first compound 0.1 µM): 0.792
relative viability ([17]; first compound 0.3162 µM): 0.842
relative viability ([17]; first compound 1 µM): 0.7
relative viability ([18]; first compound 0.01 µM): 0.7
relative viability ([18]; first compound 0.03162 µM): 0.727
relative viability ([18]; first compound 0.1 µM): 0.686
relative viability ([18]; first compound 0.3162 µM): 0.698
relative viability ([18]; first compound 1 µM): 0.623
relative viability ([21]; first compound 0.01 µM): 0.83
relative viability ([21]; first compound 0.03162 µM): 0.782
relative viability ([21]; first compound 0.1 µM): 0.837
relative viability ([21]; first compound 0.3162 µM): 0.817
relative viability ([21]; first compound 1 µM): 0.735
